Legend:
[1] = tested on: LPS stimulated peritoneal macrophages (TRPV channels); experiment: Cytokine secretion by LPS stimulated macrophages treated with TRPV channel antagonists; assay type: cell-based, mouse
From the text: The transient receptor potential V (TRPV) family of ion channels is sensitive to osmotic changes and has an intimate relationship with levels of intracellular calcium. […] In order to determine the influence of TRPV channels Ruthenium red, a potent, broad acting TRPV channel antagonist was used. […] The results can be seen in FIG. 20A. […] Following two hours, supernatants were collected for LUMINEX analysis of inflammatory cytokines. […] However, while treatment with SKF96365 did have an effect on LPS stimulated macrophages, it was not as pronounced as that of treatment with ruthenium red.

Influenza A/WSN/33/1 = assay type: cell-based
[2] = tested on: LPS stimulated peritoneal macrophages; experiment: Cytokine secretion by LPS stimulated peritoneal macrophages; assay type: cell-based, mouse (C57BL/6); conditions: for LPS induced inflammatory mediator secretion (KC, IL-6): mouse macrophages, 10 ng/ml LPS, 2 hours, salts 0-50 mM
From the text: Macrophages represent a key component of the innate immune system. Alveolar macrophages are thought to play a central role in disease pathogenesis by secreting pro-inflammatory cytokines and chemokines in the context of both chronic obstructive pulmonary disease (COPD) and cystic fibrosis (CF), two respiratory illnesses involving airway inflammation. It was hypothesized that given the prominent role of alveolar macrophages in LPS induced lung inflammation, it may be possible that Ca^2+-ion containing formulations directly influence the inflammatory response of the macrophage after LPS exposure. In order to test this hypothesis in-vitro, murine peritoneal macrophages were isolated. C57BL/6 female mice were anesthetized using isofluorane inhalant. […] To confirm macrophage phenotype, a cytospin preparation was performed. Cells were cultured in DMEM:F12 overnight. The following day the media was removed and the macrophages were exposed to media supplemented with varying concentrations of LPS (1 ng/ml to 1 microgram/ml), a dose range of supplemental calcium chloride (5 mM to 50 mM) as well as a dose range of calcium chloride in the presence of LPS for 2 hours. After 2 hours in culture the media was collected for analysis of inflammatory cytokines using LUMINEX® Multiplex immunoassays (Invitrogen/Life Technologies, Grand Island, N.Y.) and BIO-PLEX MANAGER™ software (Version 6) (Bio-Rad, Hercules, Calif.). Presto blue or trypan blue assays were used to determine cell viability. […] The media content for 3 representative inflammatory mediators (IL-6, KC and TNF-alpha) cultured under LPS free conditions (unstimulated) as well as cells exposed to 1 ng/ml LPS were analyzed.
(§1) To determine the effects of alternating the cation in the calcium chloride salt, LPS stimulated human or mouse macrophages were exposed to alternative divalent and monovalent cations, magnesium chloride and sodium chloride, as well as an alternative […] anion, calcium lactate. Normal human monocytes were differentiated into macrophage derived monocytes in culture for 7 days as described in Example 16, and perotineal derived mouse macrophages were described in Example 15. Following two hours of incubation with LPS (10 ng/ml) and the appropriate salt concentration, supernatants were collected for LUMINEX protein analysis of inflammatory cytokines.

human macrophages = experiment: Cytokine secretion by LPS stimulated human monocyte-derived macrophages (normal and COPD-derived); assay type: cell-based; conditions: 10 ng/ml LPS, 2 hours; for LPS induced cytokine production (IL-8, IL-6): human macrophages, salts 0-50 mM
Method: Normal and COPD-derived human monocytes were differentiated into macrophage derived monocytes in culture for 7 days. Cells were thawed following storage in liquid nitrogen, and then plated at 2.0-2.5×10^5 cells/well (in 0.2 ml per well) in IMDM cell culture media containing 10% human serum and human GM-CSF (50 ng/ml). On day 7, assays were performed on the cells, using media containing serum but no GM-CSF. Cells were stimulated with 10 ng/ml LPS, and exposed to calcium chloride concentrations of either 10 or 25 mM. Following two hours, supernatants were collected for LUMINEX analysis of IL-8, IL-6, TNF alpha and MIP-1 alpha (FIG. 17A), IL-8 only for COPD (FIG. 17B). […] Calcium chloride reduced LPS induced inflammation in normal and COPD-derived human monocyte-derived macrophages.
as §1

TLR 5 = TLR 5 (Mus musculus, UniProt Q9JLF7); conditions: TLR 5 ligand; negative values indicate increased KC
Method: (§2) It was hypothesized that calcium likely alters the immune response to LPS and possibly other TLR receptors in alveolar macrophages. To test this hypothesis, primary macrophages were isolated from mice. Briefly, C57BL/6 female mice were anesthetized using isofluorane inhalant. Animals were injected i.p. with 1.5 ml thioglycollate. Three to four days post injection mice were euthanized using CO2 to harvest peritoneal macrophages. Under sterile conditions, the abdominal wall was exposed and the peritoneal cavity was injected with 7 ml of lavage media, which was immediately recovered back into the syringe and deposited into a 50 mL conical tube. The peritoneal cavity was opened and the residual lavage media was recovered. Cell suspensions were centrifuged at 1200 rpm (RT-6000) for 8-10 minutes. The supernatant was removed and cell pellets were resuspended in 1-2 ml lysis buffer, incubated at room temperature (RT) for 1-2 minutes, and resuspended in18-19 ml cell culture media (DMEM/F-12). Cells were again centrifuged, supernatants were removed, the cell pellets were pooled, washed once more in cell culture media, centrifuged, and resuspended in 10 ml cell culture media, and cells were counted using a hemocytometer. To confirm macrophage phenotype, a cytospin preparation was performed. Cells were cultured in DMEM:F12 overnight. Cells were then stimulated with agonists to TLR4 (LPS or LipidA), TLR1/2 (pam3CSK4), TLR2/6 (FLS-1), TLR2 (LT-SA), TLR3 (Poly I:C), TLR 5 (Flagellin), TLR7 (Gardiquimod or Loxoribine) and TLR9 (CPG-ODN) ligands with 0, 10 or 25 mM calcium chloride supplemented to the media.

TLR1/2 = TLR1/2 (Mus musculus, UniProt Q9EPQ1+Q9QUN7); conditions: TLR 1/2 ligand; negative values indicate increased KC
Method: as §2

TLR2 = TLR2 (Mus musculus, UniProt Q9QUN7); conditions: TLR 2 ligand; negative values indicate increased KC
Chain of TLR2 (Q9QUN7 25-784): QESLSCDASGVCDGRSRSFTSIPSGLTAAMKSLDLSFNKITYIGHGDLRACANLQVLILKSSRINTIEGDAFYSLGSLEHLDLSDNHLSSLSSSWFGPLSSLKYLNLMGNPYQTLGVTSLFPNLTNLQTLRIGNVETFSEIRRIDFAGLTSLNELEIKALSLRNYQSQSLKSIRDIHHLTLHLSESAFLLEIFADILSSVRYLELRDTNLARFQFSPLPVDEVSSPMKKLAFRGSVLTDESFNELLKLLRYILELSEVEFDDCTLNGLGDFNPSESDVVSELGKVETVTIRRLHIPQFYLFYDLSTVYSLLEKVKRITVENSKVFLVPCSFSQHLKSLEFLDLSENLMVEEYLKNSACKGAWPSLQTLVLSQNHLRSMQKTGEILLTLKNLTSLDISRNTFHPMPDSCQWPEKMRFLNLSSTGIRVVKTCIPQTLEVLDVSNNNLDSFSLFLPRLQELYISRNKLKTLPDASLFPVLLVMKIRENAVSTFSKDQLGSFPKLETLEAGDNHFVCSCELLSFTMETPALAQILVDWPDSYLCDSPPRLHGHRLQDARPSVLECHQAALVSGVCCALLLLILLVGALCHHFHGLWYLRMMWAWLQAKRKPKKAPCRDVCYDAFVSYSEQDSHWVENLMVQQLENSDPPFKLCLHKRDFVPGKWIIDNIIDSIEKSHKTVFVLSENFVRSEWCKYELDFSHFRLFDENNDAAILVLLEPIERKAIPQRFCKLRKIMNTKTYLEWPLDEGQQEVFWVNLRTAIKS
Method: as §2

TLR2/6 = TLR2/6 (Mus musculus, UniProt Q9EPW9+Q9QUN7); conditions: TLR 2/6 ligand; negative values indicate increased KC
Chain of TLR2/6 (Q9QUN7 25-784): as above
Chain of TLR2/6 (Q9EPW9 28-795): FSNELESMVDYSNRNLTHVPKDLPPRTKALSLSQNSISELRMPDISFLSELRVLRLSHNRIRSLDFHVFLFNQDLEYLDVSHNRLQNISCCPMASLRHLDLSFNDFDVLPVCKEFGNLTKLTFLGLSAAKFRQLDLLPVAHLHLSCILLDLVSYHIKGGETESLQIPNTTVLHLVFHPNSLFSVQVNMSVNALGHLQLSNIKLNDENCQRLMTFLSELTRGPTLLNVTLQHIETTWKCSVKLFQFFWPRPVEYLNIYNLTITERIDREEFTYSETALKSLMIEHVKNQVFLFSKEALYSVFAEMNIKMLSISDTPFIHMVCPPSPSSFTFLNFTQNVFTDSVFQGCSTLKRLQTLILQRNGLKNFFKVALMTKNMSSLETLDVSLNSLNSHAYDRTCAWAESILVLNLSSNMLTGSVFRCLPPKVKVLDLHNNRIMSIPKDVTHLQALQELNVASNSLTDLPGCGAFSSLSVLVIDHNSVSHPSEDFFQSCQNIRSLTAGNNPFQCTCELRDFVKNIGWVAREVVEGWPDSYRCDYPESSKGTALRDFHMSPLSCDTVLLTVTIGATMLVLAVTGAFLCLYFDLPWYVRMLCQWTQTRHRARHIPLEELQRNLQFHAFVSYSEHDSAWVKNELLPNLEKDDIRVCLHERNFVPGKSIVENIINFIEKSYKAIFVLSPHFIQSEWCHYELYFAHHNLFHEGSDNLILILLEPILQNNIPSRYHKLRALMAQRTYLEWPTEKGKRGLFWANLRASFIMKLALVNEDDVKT
Method: as §2

TLR3 = TLR3 (Mus musculus, UniProt Q99MB1); conditions: TLR 3 ligand; negative values indicate increased KC
Method: as §2

TLR4 = TLR4 (Mus musculus, UniProt Q9QUK6); conditions: TLR 4 ligand; negative values indicate increased KC
Chain of TLR4 (Q9QUK6 26-835): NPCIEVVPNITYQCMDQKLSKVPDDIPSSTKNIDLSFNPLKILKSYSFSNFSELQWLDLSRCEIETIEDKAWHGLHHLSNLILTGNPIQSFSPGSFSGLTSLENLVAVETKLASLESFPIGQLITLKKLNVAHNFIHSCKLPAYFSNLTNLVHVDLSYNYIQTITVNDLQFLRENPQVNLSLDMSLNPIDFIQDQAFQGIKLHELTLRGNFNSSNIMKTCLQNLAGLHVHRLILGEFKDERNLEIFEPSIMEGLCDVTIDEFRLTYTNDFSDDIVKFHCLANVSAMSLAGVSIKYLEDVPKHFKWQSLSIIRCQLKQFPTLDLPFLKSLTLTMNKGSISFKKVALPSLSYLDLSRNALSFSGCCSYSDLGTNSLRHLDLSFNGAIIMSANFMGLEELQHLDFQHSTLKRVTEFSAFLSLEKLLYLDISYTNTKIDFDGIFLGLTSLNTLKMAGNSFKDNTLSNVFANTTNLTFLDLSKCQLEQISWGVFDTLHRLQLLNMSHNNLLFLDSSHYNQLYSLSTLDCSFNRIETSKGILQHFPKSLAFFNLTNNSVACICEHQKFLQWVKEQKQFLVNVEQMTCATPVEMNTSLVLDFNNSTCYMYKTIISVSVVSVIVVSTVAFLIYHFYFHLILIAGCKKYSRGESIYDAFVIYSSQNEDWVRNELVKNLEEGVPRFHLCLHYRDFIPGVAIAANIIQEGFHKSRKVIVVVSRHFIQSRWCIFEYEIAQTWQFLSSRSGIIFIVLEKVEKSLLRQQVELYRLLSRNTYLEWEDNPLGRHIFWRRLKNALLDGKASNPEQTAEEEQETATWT
Chain of TLR4 (Q9JHF9 19-160 partner): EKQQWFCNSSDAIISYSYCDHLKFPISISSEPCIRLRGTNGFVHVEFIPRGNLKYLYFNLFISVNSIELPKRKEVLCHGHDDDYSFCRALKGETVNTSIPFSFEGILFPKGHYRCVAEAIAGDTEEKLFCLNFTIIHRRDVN
Method: as §2

TLR7 = TLR7 (Mus musculus, UniProt P58681); conditions: TLR 7 ligand; negative values indicate increased KC
Chain of TLR7 (P58681 27-1050): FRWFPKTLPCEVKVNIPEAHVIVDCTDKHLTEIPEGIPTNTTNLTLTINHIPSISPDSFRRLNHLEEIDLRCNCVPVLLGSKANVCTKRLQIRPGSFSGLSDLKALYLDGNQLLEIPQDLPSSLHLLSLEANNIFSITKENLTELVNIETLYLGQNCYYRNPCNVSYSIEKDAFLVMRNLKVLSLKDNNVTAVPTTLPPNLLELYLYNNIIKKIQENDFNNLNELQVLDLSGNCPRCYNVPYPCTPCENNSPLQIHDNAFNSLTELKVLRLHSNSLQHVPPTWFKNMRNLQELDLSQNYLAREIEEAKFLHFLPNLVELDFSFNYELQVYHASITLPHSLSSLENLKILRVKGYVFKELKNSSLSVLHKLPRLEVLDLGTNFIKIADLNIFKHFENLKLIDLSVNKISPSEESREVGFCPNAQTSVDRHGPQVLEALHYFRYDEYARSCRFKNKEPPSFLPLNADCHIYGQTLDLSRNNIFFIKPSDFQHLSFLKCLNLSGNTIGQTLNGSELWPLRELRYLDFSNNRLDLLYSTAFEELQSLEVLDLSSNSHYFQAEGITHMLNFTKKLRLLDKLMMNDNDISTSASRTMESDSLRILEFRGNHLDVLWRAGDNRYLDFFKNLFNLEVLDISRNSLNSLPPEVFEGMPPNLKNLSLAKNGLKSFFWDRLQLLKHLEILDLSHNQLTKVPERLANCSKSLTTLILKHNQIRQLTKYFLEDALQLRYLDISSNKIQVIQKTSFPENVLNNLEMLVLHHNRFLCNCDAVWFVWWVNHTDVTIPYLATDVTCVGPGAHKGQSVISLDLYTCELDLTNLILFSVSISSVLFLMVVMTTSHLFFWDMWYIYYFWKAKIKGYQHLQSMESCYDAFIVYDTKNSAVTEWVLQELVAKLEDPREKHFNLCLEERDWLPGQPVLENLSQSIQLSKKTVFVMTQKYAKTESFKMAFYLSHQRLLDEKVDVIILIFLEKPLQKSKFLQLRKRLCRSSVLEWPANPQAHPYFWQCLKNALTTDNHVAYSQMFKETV
Method: as §2

TLR9 = TLR9 (Mus musculus, UniProt Q9EQU3); conditions: TLR 9 ligand; negative values indicate increased KC
Chain of TLR9 (Q9EQU3 26-1032): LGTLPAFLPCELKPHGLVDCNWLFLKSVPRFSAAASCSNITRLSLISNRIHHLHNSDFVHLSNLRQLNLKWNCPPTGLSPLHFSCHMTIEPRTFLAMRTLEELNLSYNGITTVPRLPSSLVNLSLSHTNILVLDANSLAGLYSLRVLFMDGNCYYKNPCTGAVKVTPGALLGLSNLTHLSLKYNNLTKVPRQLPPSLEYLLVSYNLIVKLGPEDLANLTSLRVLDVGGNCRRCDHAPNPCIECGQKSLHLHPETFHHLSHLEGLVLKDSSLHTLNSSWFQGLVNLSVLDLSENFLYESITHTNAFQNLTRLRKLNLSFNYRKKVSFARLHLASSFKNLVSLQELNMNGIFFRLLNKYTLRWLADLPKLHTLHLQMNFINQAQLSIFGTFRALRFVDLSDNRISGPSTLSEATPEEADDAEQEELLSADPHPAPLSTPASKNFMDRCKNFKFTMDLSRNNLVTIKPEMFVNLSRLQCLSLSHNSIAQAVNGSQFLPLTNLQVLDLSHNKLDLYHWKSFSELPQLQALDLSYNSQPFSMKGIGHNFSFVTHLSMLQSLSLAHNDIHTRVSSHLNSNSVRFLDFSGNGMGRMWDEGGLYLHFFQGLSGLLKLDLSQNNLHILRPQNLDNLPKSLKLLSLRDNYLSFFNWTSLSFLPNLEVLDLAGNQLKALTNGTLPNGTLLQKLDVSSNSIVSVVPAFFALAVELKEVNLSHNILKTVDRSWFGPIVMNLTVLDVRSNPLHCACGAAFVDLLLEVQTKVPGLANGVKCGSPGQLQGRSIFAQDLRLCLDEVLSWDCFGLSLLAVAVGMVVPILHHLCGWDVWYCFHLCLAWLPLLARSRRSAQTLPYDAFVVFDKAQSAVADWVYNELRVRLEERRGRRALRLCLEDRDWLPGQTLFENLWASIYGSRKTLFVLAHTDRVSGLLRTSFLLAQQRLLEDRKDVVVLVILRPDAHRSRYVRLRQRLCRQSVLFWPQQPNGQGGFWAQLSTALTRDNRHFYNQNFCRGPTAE
Method: as §2

[3] = tested on: LPS stimulated peritoneal macrophages
Method: Following 2 hours of incubation, cells were lysed, RNA was isolated, and a cDNA reaction was performed. RNA was harvested using the QIAGEN (Germantown, Md.) RNeasy® Plus Mini kit according to the manufacturer's Animal Cell Protocol (2005). RNA concentration and purity was determined by spectrophotometry using NANODROP 1000 spectrophotometer (Thermo Fisher Scientific, Wilmington, Del.). The expression of KC, IL-6, and TNF alpha were assessed by quantitative PCR. RNA expression levels of selected genes were quantified using the delta/delta C(t) (ΔΔCt) method using the expression of 18S as an internal reference for each sample. RNA was quantified by a two-step procedure in which RNA was converted to cDNA by reverse transcription using the iSCRIPT cDNA Synthesis kit from Bio-Rad followed by quantitative PCR (qPCR) using iQ SYBR Green Supermix from Bio-Rad.
The following cDNA synthesis reaction conditions were used: […]
The following quantitative PCR reaction conditions were used: […]
Data were collected and analyzed using the (delta/delta) ΔΔCt method. […] The fold change was then determined by the equation: 2^−ΔΔCt. […]

[4] = tested on: macrophages stimulated with S. pneumoniae; conditions: S. pneumoniae challenge, 0, 5, 10, 25 mM, 2 hours
Method: (§3) To assess the level of bacterial induced inflammation in isolated peritoneal murine macrophages, isolated cells were placed in cell culture media and allowed to adhere to 96 well plates overnight. […] Following two hours of incubation, supernatants were collected for LUMINEX analysis of KC and TNF alpha with the results shown in FIG. 19.

[5] = tested on: macrophages stimulated with K. pneumoniae; conditions: 1×10^7 CFU/ml K. pneumoniae, 0, 5, 10, 25 mM, 2 hours
Method: as §3

neutrophils in the BAL = experiment: Ozone exposure mouse model; assay type: in vivo, mouse (BALB/cJ); conditions: 100 microgram/kg intranasal
Method: Female wild-type (BALB/cJ) were obtained from The Jackson Laboratory (Bar Harbor. ME) at six weeks of age. Mice were treated with dry powder formulations Leucine (98% leucine, 2% sodium chloride) and Formulation II (75% calcium lactate, 20% leucine, 5% sodium chloride) in a temperature and humidity controlled room (30±5% RH and 20±2° C.) or administered liquid treatments of a p38 MAP kinase inhibitor (100 microgram/kg, Tocris SB203580), and USP-Grade Saline (0.9% NaCl), Cardinal Health via the intranasal route. Naïve mice were not exposed to dry powder treatment. One hour following the end of treatment, conscious mice were placed in a custom plastic exposure chamber (26 cm×16 cm×12 cm, Braintree Scientific) on a heated pad at 37° C. Ozone was generated via corona discharge using OZ-2AD Ozone Generator (Ozone Solutions, Hull, Iowa) and diluted with 2.0 LPM (liter per minute) of USP breathing air (MedTech, Medford, Mass.) to a concentration of 3 ppm. The concentration inside the exposure chamber was sampled continuously at 1.0 LPM using UV-106L Ozone Analyzer (Ozone Solutions, Hull, Iowa). Mice were exposed to ozone for 1 hour. Control mice were placed in static cages and exposed to ambient air for a duration matched to each ozone exposure. Mice were euthanized 4 hours following the end of the ozone or air exposure using a fatal dose of pentobarbital. BAL and cell counts were performed. […]

SMILES: COc1ccc(CCCOC(Cn2ccnc2)c2ccc(OC)cc2)cc1 (stereo not shown) [SKF 96365]
- KC and IL-6 concentrations ([1]; 5, 20, 50 micromolar, 10 ng/ml LPS, 2 hours): dose dependent decrease
- TNF alpha concentration ([1]; 20 and 50 micromolar, 10 ng/ml LPS): reduced at the highest two doses
- decrease in KC concentration ([1]; 50 micromolar, 10 ng/ml LPS): 51%
- KC and TNF alpha reduction ([1]; along with 10 mM calcium chloride, compared to calcium chloride alone): small increase

SMILES: CC(=O)N[C@H]1[C@H]([C@H](O)[C@H](O)CO)OC(C(=O)O)=C[C@@H]1N=C(N)N [Zanamivir, zanamivir]
- viral infection / Influenza titer versus untreated (Air) control (Influenza A/WSN/33/1): reduced viral infection in a dose responsive manner

SMILES: [Ca+2].[Cl-].[Cl-] [calcium chloride]
- protein secretion of KC, IL-6 and TNF alpha ([2]; 1 ng/ml LPS, 2 hours, 10, 25, 50 mM, compared to untreated (0) cells): significantly reduced
- cell viability ([2]; Presto blue or trypan blue assays): generally did not affect cell viability
- LPS induced inflammatory mediator secretion (KC, IL-6) [2]: decreased
- inflammatory mediator release of unstimulated cells ([2]; no LPS, increasing calcium chloride content): mild increase
- inflammatory cytokine secretion (IL-8, IL-6, TNF alpha, MIP-1 alpha; IL-8 only for COPD) (human macrophages; 25 mM, to near that of non-LPS challenged cells): significant decline
- LPS induced cytokine production (IL-8, IL-6) (human macrophages): of lesser magnitude than calcium lactate but more potent than sodium chloride
- % KC reduction at 10 mM calcium ion (TLR 5): 54 ± 6%
- % KC reduction at 25 mM calcium ion (TLR 5): 50 ± 2%
- % KC reduction at 10 mM calcium ion (TLR1/2): −1 ± 9%
- % KC reduction at 25 mM calcium ion (TLR1/2): −27 ± 58%
- % KC reduction at 10 mM calcium ion (TLR2): 46 ± 10%
- % KC reduction at 25 mM calcium ion (TLR2): 85 ± 9%
- % KC reduction at 10 mM calcium ion (TLR2/6): −25 ± 11%
- % KC reduction at 25 mM calcium ion (TLR2/6): −51 ± 27%
- % KC reduction at 10 mM calcium ion (TLR3): 81 ± 7%
- % KC reduction at 25 mM calcium ion (TLR3): 76 ± 16%
- % KC reduction at 10 mM calcium ion (TLR4): 68 ± 15%
- % KC reduction at 25 mM calcium ion (TLR4): 75 ± 13%
- % KC reduction at 10 mM calcium ion (TLR7): −10 ± 41%
- % KC reduction at 25 mM calcium ion (TLR7): −20 ± 49%
- % KC reduction at 10 mM calcium ion (TLR9): −55 ± 51%
- % KC reduction at 25 mM calcium ion (TLR9): −144%
- gene expression of KC, IL-6 and TNFα ([3]; 1 ng/ml LPS, 2 hours, 10, 25, 50 mM, compared to untreated (0)): significantly reduced
- NRIP1 gene expression ([3]; LPS stimulated): significantly reduced
- inflammatory mediator secretion (KC, TNF alpha) [4]: little effect
- inflammatory mediator secretion (KC, TNF alpha) [5]: dose-dependent decrease

SMILES: CC(O)C(=O)[O-].CC(O)C(=O)[O-].[Ca+2] (stereo not shown) [calcium lactate]
- LPS induced inflammatory mediator secretion (KC, IL-6) [2]: more profound effect
- LPS induced cytokine production (IL-8, IL-6) (human macrophages): most profound effect

SMILES: [Cl-].[Cl-].[Mg+2] [magnesium chloride]
- LPS induced inflammatory mediator secretion (KC, IL-6) [2]: some activity
- LPS induced cytokine production (IL-8, IL-6) (human macrophages): of lesser magnitude than calcium lactate but more potent than sodium chloride

SMILES: C[S+]([O-])c1ccc(-c2nc(-c3ccncc3)c(-c3ccc(F)cc3)[nH]2)cc1 (stereo not shown) [p38 MAP kinase inhibitor]
- pulmonary total cell response to ozone exposure (neutrophils in the BAL): significantly inhibited

SMILES: N.N.N.N.N.N.N.N.N.N.N.N.N.N.[Cl-].[Cl-].[Cl-].[Cl-].[Cl-].[Cl-].[O-2].[O-2].[Ru+3].[Ru+3].[Ru+4] [ruthenium red]
- decrease in KC concentration ([1]; in the presence of 10 mM calcium chloride, 1 ng/ml LPS): further enhanced
- decrease in KC concentration ([1]; ruthenium red alone (1, 5, 10, 20 micromolar), 1 ng/ml LPS, 2 hours): more than 50%

SMILES: [Cl-].[Na+] [sodium chloride, reference compound]
- LPS induced inflammatory mediator secretion (KC, IL-6) [2]: little influence
- LPS induced cytokine production (IL-8, IL-6) (human macrophages): little influence
